Tests used:
[1] = clinical scale; abscesses, hematomas, elevated arterial pressure, allergic reactions etc.; cited from earlier work
[2] = system: Schwann cells; assay: stimulation of Schwann cell growth and myelin formation; conditions: inventors' experiments
[3] = in vivo; cited from earlier work
[4] = system: degenerating nerves; assay: myelination of degenerating nerves in rats; assay type: in vivo
Excerpt: By comparison, myelination of nerve fibers proceeded slowly in control animals that were not treated with stephaglabrin sulfate and was not completed even within 100 to 120 days.

[5] = system: true and false cholinesterase; conditions: cited from earlier work
[6] = treatment of patients with cerebrospinal form of disseminated sclerosis; assay type: in vivo; conditions: disseminated sclerosis with tetraparesis, cerebello-ataxic syndrome, pelvic disorders
Excerpt: The preparation was effective in patients suffering from the cerebrospinal form of disseminated sclerosis combined with tetraparesis, cerebello-ataxic syndrome, and pelvic disorders.

[7] = treatment of syringomyelia patients; assay type: in vivo
Protocol: The preparation was administered to 37 patients suffering from syringomyelia.
Along with the administration of the preparation, all the patients were directed to take massage sessions, physiotherapy exercises, spine ionization by potassium iodide, and vitamins B1 and B12. […] Special attention must be drawn to the fact that the malfunctions are corrected in patients showing early signs of syringobulbia.

[8] = in water and aqueous alcohol; cited from earlier work
[9] = in vivo; cited from earlier work; remark: listed apart in the source
[10] = system: smooth muscles; conditions: cited from earlier work
[11] = treatment of myelopathy patients with lateral amyotrophic syndrome; assay type: in vivo; conditions: intramuscular 2.0 ml of 0.25% solution twice a day, two to three weeks
Protocol: Administration of stephaglabrin sulfate intramuscularly in 2.0 ml doses of a 0.25% solution twice a day for two to three weeks in treating myelopathy patients showing elements of a lateral amyotrophyic syndrome.

[12] = system: connective tissue development; conditions: damage to a nerve; U.S.S.R. Patent No. 1,713,151; cited from earlier work
[13] = treatment of amyotrophic lateral sclerosis patients; assay type: in vivo
Excerpt: Another patient had their disordered breathing, which could not be corrected by other preparations, restored.

Substance | side reactions on clinical use [1] | growth of Schwann cells and subsequent myelin formation [2] | arterial pressure [3] | start of myelination of degenerating nerves ([4]; 0.1 to 1.0 mg/kg, versus untreated animals) | speed of impulse passage in the nerve ([4]; electrophysiological studies) | activity of true and false cholinesterase [5] | clinical effectiveness [6] | time to lowered levels of sensing disorders ([7]; from the start of treatment, 2 ml twice a day plus massage, physiotherapy, vitamins) | patients with a positive effect ([7]; of 37 syringomyelia patients) [patients] | onset of decline of sympathalgic pain intensity ([7]; some patients) | solubility [8] | toxicity [9] | effect on smooth muscles [10] | clinical effects observed [11] | activity in relation to connective tissue development, preventing formation of scars [12] | therapeutic effect ([13]; 14 patients with severe amyotrophic lateral sclerosis) | disordered breathing ([13]; another patient, not corrected by other preparations) | patients with strength build-up in the extremities and reduced bulbar disorders ([13]; of 14 patients) [patients] | swallowing ([13]; one patient with aphonia and dysphagia, after 10 days of 2 ml twice a day)
glatiramer acetate [Copaxone-Teva] | Numerous side reactions |  |  |  |  |  |  |  |  |  |  |  |  |  |  |  |  |  | 
stephaglabrin sulfate |  | stimulate the growth of Schwann cells | lowers arterial pressure | stimulates an early start of myelination | complete recovery | suppresses the activity | effective | within two to three weeks | 28 | 10th to 12th day | well soluble | low toxicity | tonic effect | disappearance of fibrillations, reduction in amyotrophy intensity and polykinetics of proprioceptive reflexes, and growth of muscle power in the arms | specific inhibiting activity | positive therapeutic effect | restored | 12 | significant improvement in swallowing
